Experimental findings from patent publication US11098060B2, “Macrocycle containing aminopyrazole and pyrimidine and pharmaceutical composition and use thereof” (CHIA TAI TIANQING PHARMACEUTICAL GROUP CO., LTD., priority 2017, dated 2021) are described below.

In general, AUC(0-inf) refers to total exposure, with the tail of the curve extrapolated. As a reminder, the Cmax is the maximum level reached in the sampled fluid or tissue. One may read the Tmax as the time from dosing to the highest level. Broadly, the half-life is the time in which the quantity being followed falls by half. A lower half-life goes with rapid decline. As a reminder, the IC50 is the point on the concentration scale where inhibition reaches its midpoint. Read a low IC50 as greater potency.

The nature of series [1]: Pharmacokinetic assay in rats, oral. Format: in vivo. To be noted: rat, male SD rats, 5 mg/kg single intragastric administration, plasma. How it is done:
Male SD rats were available from Beijing Vital River Laboratory Animal Technology Co., Ltd. The rats were allocated with three rats per group, and orally administered the suspension of a sample to be tested (5 mg/kg, the suspension is a mixed solution of 10% EtOH, 40% PEG 400 and 50% H2O) by single intragastric administration, respectively. Before the experiment, the animals were fasted overnight, and the fasting time was from 10 hrs before administration to 4 hrs after administration. After administration, a blood sample was taken at 0.25 hr, 0.5 hr, 1 hr, 2 hrs, 4 hrs, 6 hrs, 8 hrs and 24 hrs, respectively. After the animals were narcotized with isoflurane using an anaesthesia machine for small animals, 0.3 mL of whole blood was taken from fundus venous plexus, and placed in a heparin anticoagulant tube. At 4° C., the sample was centrifuged at 4000 rpm for 5 min, and plasma was transferred to a centrifuge tube and preserved at −80° C. until the analysis was started. The sample in plasma was extracted by the protein precipitation method, and the extracted liquid was analyzed by LC/MS/MS.

Series [2] addresses TrkA^WT kinase (Homo sapiens (Human), UniProt P04629). The experiment in a line: Assay for inhibitory activity (IC50) against TrkA^WT (HTRF). Format: biochemical. To be noted: TrkA 1 nM, ATP 40 μM, TK peptide 1 μM, 60 min at 23° C. (Time-resolved FRET reads energy transfer from a long-lived donor to a nearby acceptor.)
For series [3], the target named is TrkA^G595R (Kinase domain) kinase (Homo sapiens (Human), UniProt P04629, G595R). Description: Assay for inhibitory activity (IC50) against TrkA^G595R kinase (HTRF). It counts as biochemical. To be noted: kinase 0.2 nM, TK peptide 1 μM, 120 min at 23° C.
Chain of TrkA^G595R (Kinase domain) kinase (P04629 510-781 G595R): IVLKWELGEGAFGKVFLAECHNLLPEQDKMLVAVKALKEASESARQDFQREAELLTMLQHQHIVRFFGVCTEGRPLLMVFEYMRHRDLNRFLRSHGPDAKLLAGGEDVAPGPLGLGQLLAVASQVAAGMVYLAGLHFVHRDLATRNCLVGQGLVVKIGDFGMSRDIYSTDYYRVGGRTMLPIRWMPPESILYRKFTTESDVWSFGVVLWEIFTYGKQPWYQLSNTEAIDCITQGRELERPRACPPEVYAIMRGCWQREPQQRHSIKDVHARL

Chain of TrkA^WT kinase (P04629 33-796): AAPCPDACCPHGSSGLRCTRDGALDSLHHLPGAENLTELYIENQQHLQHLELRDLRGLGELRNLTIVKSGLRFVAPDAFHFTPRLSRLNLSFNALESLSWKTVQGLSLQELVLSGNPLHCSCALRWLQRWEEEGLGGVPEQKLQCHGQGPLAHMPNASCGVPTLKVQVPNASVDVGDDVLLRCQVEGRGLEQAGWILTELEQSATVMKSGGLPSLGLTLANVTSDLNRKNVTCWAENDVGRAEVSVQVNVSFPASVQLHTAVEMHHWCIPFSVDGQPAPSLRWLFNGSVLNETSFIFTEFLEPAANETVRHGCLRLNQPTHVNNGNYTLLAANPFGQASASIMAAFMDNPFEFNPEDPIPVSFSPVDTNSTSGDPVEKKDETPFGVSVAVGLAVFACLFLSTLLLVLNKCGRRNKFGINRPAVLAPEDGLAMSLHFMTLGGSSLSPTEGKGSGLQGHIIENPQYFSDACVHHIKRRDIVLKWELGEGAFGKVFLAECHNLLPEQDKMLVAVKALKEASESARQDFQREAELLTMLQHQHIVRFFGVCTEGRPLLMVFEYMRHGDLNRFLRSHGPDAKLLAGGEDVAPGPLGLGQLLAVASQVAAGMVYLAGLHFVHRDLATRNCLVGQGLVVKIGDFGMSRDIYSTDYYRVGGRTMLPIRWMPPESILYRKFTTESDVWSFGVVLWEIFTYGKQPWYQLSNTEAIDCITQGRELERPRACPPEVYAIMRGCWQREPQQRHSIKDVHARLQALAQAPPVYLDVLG

On to `Nc1nn2ccc3nc2c1C(=O)NCCOc1ncc(F)cc1[C@H]1CCCN31` [Example 33, (R,1^3E,1^4E)-1^2-amino-3^5-fluoro-4-oxa-7-aza-1(5,3)-pyrazo[1,5-a]pyrimidine-3(3,2)-pyridine-2(1,2)-pyrrolidylcyclooctanephane-8-one], for which, in series [1], the AUC(0-inf) came to 513 ng·h/mL, the peak concentration (Cmax) amounted to 142 ng/mL, the time to peak (Tmax) is 30 min and the half-life was 253 min.
For `C[C@H]1CNC(=O)c2c(N)nn3ccc(nc23)N2C[C@@H](F)C[C@@H]2c2cc(F)cnc2O1` [Example 15, (1^3E,1^4E,2^2R,2^4S,5S)-1^2-amino-2^4,3^5-difluoro-5-methyl-4-oxa-7-aza-1(5,3)-pyrazolo[1,5-a] pyrimidine--3(3,2)-pyridine-2(1,2)-pyrrolidylcyclooctanephane-8-one], in series [2], half-maximal inhibition (IC50) was put at 0.45 ± 0.18 nM. Besides, in series [1], the AUC(0-inf) is 494 ng·h/mL, the peak level (Cmax) was 285 ng/mL, the time of peak concentration (Tmax) stood at 34.8 min and the half-life was 91.8 min. The midpoint of inhibition in series [3], the IC50, lay at 0.53 ± 0.08 nM.
In the case of `Nc1nn2ccc3nc2c1C(=O)NCCCOc1ncc(F)cc1[C@H]1CCCN31` [Example 21, (R,1^3E,1^4E)-1^2-Amino-3^5-fluoro-4-oxa-8-aza-1(5,3)-pyrazol[1,5-a]pyrimidine-3(3,2)-pyridine-2(1,2)-pyrrolidylcyclononanephane-9-one], the IC50 in series [2] turned out to be 0.4 ± 0.04 nM; in series [3], 0.85 ± 0.04 nM.
In the same order, the values of `Nc1nn2ccc3nc2c1C(=O)NCCCCOc1ncc(F)cc1[C@H]1C[C@H](F)CN31` [Example 16, (1^3E,1^4E,2^2R,2^4S)-1^2-amino-2^4,3^5-difluoro-4-oxa-9-aza-1(5,3)-pyrazolo[1,5-a] pyrimidine-3(3,2)-pyridine-2(1,2)-pyrrolidylcyclodecanephane-10-one] are 0.51 ± 0.05 nM and 0.76 ± 0.14 nM.
`Nc1nn2ccc3nc2c1C(=O)NCCOc1ncc(F)cc1[C@H]1C[C@H](F)CN31` [Example 14, (1^3E,1^4E,2^2R,2^4S)-1^2-amino-2^4,3^5-difluoro-4-oxa-7-aza-1(5,3)-pyrazolo[1,5-a]pyrimidine-3(3,2)-pyridine-2 (1,2)-pyrrolidylcyclooctanephane-8-one]: the concentration for half-maximal inhibition (IC50) in series [2] is 0.68 ± 0.03 nM. Further, in series [1], the area under the curve AUC(0-inf) worked out at 504 ng·h/mL, the peak level (Cmax) was 140 ng/mL, the Tmax is 60 min and the half-life is 109 min. In series [3], this compound had a half-inhibitory concentration (IC50) of 0.4 ± 0.05 nM.
For `Nc1nn2ccc3nc2c1C(=O)NCCOc1ncc(F)cc1[C@H]1C[C@@H](O)CN31` [Example 9, (1^3E,1^4E,2^2R,2^4R)-1^2-amino-3^5fluoro-2^4-hydroxy-4-oxa-7-aza-1(5,3)-pyrazolo[1,5-a] pyrimidine-3(3,2)-pyridine-2(1,2)-pyrrolidylcyclooctanephane-8-one], the IC50 was 0.44 ± 0.12 nM in series [2] and 0.84 ± 0.14 nM in series [3].
